# Patent US20210300924A1, “5-[6-[[3-(4,5,6,7-TETRAHYDROPYRAZOLO[4,3-C]PYRIDIN-1-YL)AZETIDIN-1-YL]METHYL]MORPHOLIN-4-YL]QUINOLINE-8-CARBONITRILE DERIVATIVES AND SIMILAR COMPOUNDS AS TLR7-9 ANTAGONISTS FOR TREATING SYSTEMIC LUPUS ERYTHEMATOSUS” (Hoffmann-La Roche Inc., priority 2018, published 2021)
# Molecular target: T1, TLR9 (Homo sapiens, UniProt Q9NR96)
# T1 sequence (Q9NR96 26-1032): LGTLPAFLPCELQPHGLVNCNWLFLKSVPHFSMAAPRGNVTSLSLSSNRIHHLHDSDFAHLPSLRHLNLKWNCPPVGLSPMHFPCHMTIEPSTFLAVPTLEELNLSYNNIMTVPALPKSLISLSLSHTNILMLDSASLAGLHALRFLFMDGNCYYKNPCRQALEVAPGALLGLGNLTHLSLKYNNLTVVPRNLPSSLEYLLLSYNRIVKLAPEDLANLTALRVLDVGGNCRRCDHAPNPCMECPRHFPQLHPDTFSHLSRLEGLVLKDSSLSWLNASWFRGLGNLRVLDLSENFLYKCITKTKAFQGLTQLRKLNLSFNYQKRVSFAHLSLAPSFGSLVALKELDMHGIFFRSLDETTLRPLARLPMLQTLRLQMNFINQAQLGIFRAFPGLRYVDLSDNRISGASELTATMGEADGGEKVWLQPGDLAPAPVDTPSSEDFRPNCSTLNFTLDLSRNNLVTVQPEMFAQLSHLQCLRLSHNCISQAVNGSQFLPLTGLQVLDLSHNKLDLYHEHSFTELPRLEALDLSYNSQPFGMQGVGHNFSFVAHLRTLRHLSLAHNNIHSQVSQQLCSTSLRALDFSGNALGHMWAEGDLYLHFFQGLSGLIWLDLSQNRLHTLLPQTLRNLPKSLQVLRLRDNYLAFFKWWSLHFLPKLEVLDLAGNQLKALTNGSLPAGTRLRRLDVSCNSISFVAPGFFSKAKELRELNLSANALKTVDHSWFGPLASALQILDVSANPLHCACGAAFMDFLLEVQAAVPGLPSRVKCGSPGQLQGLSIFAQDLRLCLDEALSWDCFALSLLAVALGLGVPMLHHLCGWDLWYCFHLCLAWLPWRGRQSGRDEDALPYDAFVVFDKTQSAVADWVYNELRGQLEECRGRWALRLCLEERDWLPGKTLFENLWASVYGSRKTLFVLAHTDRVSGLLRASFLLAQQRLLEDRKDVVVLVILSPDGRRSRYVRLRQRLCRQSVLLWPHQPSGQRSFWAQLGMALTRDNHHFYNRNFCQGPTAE
# Assay: HEK293-Blue-hTLR-9 cells assay
# Format: cell-based
# Parameters: host or cells: HEK293 (HEK-Blue hTLR9)
# Details: HEK293-Blue-hTLR9 cells, ODN2006 stimulation, 20 hrs, SEAP reporter; read-out: HEK/hTLR9 IC50
# From the text: HEK293-Blue-hTLR-9 Cells Assay:
# A stable HEK293-Blue-hTLR-9 cell line was purchased from InvivoGen (Cat. #: hkb-htlr9, San Diego, Calif., USA). These cells were originally designed for studying the stimulation of human TLR9 by monitoring the activation of NF-κB. A SEAP (secreted embryonic alkaline phosphatase) reporter gene was placed under the control of the IFN-β minimal promoter fused to five NF-κB and AP-1-binding sites. The SEAP was induced by activating NF-κB and AP-1 via stimulating HEK-Blue hTLR9 cells with TLR9 ligands. Therefore the reporter expression was declined by TLR9 antagonist under the stimulation of a ligand, such as ODN2006 (Cat. #: tlr1-2006-1, Invivogen, San Diego, Calif., USA), for incubation of 20 hrs. The cell culture supernatant SEAP reporter activity was determined using QUANTI-Blue™ kit (Cat. #: rep-01, Invivogen, San Diego, Calif., USA) at a wavelength of 640 nm, a detection medium that turns purple or blue in the presence of alkaline phosphatase.
# HEK293-Blue-hTLR9 cells were incubated at a density of 250,000-450,000 cells/mL in a volume of 170 μL in a 96-well plate in Dulbecco's Modified Eagle's medium (DMEM) containing 4.5 g/L glucose, 50 U/mL penicillin, […], 2 mM L-glutamine, 10% (v/v) heat-inactivated fetal bovine serum with addition of 20 μL test compound in a serial dilution in the presence of final DMSO at 1% and 10 μL of 20 uM ODN2006 in above DMEM, perform incubation under 37° C. in a CO2 incubator for 20 hrs. Then 20 μL of the supernatant from each well was incubated with 180 μL Quanti-blue substrate solution at 37° C. for 2 h and the absorbance was read at 620-655 nm using a spectrophotometer. The signaling pathway that TLR9 activation leads to downstream NF-κB activation has been widely accepted, and therefore similar reporter assay was modified for evaluating TLR9 antagonist.
row,SMILES,IC50 [nM]
1,"C[C@@H]1CN(c2ccc(C#N)c3ncccc23)C[C@H](CN2CC(n3ncc4c3CNCC4)C2)O1 [Example 3, 5-[(2R,6S)-2-methyl-6-[[3-(4,5,6,7-tetrahydropyrazolo[3,4-c]pyridin-1-yl)azetidin-1-yl]methyl]morpholin-4-yl]quinoline-8-carbonitrile]",51
2,"CCN1CCc2cn(C3CN(C[C@H]4CN(c5ccc(C#N)c6ncccc56)C[C@@H](C)O4)C3)nc2C1 [Example 7, 5-[(2S,6R)-2-[[3-(6-ethyl-5,7-dihydro-4H-pyrazolo[3,4-c]pyridin-2-yl)azetidin-1-yl]methyl]-6-methyl-morpholin-4-yl]quinoline-8-carbonitrile]",116
3,"C[C@@H]1CN(c2ccc(C#N)c3ncccc23)C[C@H](CN2CC(n3cc4c(n3)CN[C@@H](C)C4)C2)O1 (single isomer, unassigned) [Example 29]",72
4,"C[C@@H]1CN(c2ccc(C#N)c3ncccc23)C[C@H](CN2CC(n3cc4c(n3)C[C@H](C)NC4)C2)O1 [Example 19, 5-[(2R,6S)-2-methyl-6-[[3-[(6S)-6-methyl-4,5,6,7-tetrahydropyrazolo[4,3-c]pyridin-2-yl]azetidin-1-yl]methyl]morpholin-4-yl]quinoline-8-carbonitrile]",122
5,"Cc1nn(C2CN(C[C@H]3CN(c4ccc(C#N)c5ncccc45)C[C@@H](C)O3)C2)c2c1CNCC2 [Example 12, 5-[(2R,6S)-2-methyl-6-[[3-(3-methyl-4,5,6,7-tetrahydropyrazolo[4,3-c]pyridin-1-yl)azetidin-1-yl]methyl]morpholin-4-yl]quinoline-8-carbonitrile]",78
6,"C[C@@H]1CN(c2ccc(C#N)c3ncccc23)C[C@H](CN2CC(n3cc4c(n3)CCNC4)C2)O1 [Example 2, 5-[(2R,6S)-2-methyl-6-[[3-(4,5,6,7-tetrahydropyrazolo[4,3-c]pyridin-2-yl)azetidin-1-yl]methyl]morpholin-4-yl]quinoline-8-carbonitrile]",66
7,"C[C@@H]1CN(c2ccc(C#N)c3ncccc23)C[C@H](CN2CC(n3ncc4c3CNC4)C2)O1 [Example 10, 5-[(2S,6R)-2-[[3-(5,6-dihydro-4H-pyrrolo[3,4-c]pyrazol-1-yl)azetidin-1-yl]methyl]-6-methyl-morpholin-4-yl]quinoline-8-carbonitrile]",143
8,"C[C@@H]1CN(c2ccc(C#N)c3ncccc23)C[C@H](CN2CC(n3cc4c(n3)CCN[C@@H]4C)C2)O1 [Example 21, 5-[(2R,6S)-2-methyl-6-[[3-[(4R)-4-methyl-4,5,6,7-tetrahydropyrazolo[4,3-c]pyridin-2-yl]azetidin-1-yl]methyl]morpholin-4-yl]quinoline-8-carbonitrile]",80
9,"Cc1c2c(nn1C1CN(C[C@H]3CN(c4ccc(C#N)c5ncccc45)C[C@@H](C)O3)C1)CNCC2 [Example 43, 5-[(2R,6S)-2-methyl-6-[[3-(3-methyl-4,5,6,7-tetrahydropyrazolo[3,4-c]pyridin-2-yl)azetidin-1-yl]methyl]morpholin-4-yl]quinoline-8-carbonitrile]",83
10,"C[C@@H]1CN(c2ccc(C#N)c3ncccc23)C[C@H](CN2CC(n3cc4c(n3)CNCC4)C2)O1 [Example 4, 5-[(2R,6S)-2-methyl-6-[[3-(4,5,6,7-tetrahydropyrazolo[3,4-c]pyridin-2-yl)azetidin-1-yl]methyl]morpholin-4-yl]quinoline-8-carbonitrile]",< 32
11,"C[C@@H]1CN(c2ccc(C#N)c3ncccc23)C[C@H](CN2CC(n3ncc4c3CN[C@@H](C)C4)C2)O1 (single isomer, unassigned) [Example 27]",65
12,"C[C@@H]1CN(c2ccc(C#N)c3ncccc23)C[C@H](CN2CC(n3ncc4c3[C@H](C)NCC4)C2)O1 (single isomer, unassigned) [Example 32]",62
13,"C[C@@H]1CN(c2ccc(C#N)c3ncccc23)C[C@H](CN2CC(n3cc4c(n3)[C@H](C)NCC4)C2)O1 (single isomer, unassigned) [Example 34]",36
14,"C[C@@H]1CN(c2ccc(C#N)c3ncccc23)C[C@H](CN2CC(n3ncc4c3CCN[C@@H]4C)C2)O1 [Example 20, 5-[(2R,6S)-2-methyl-6-[[3-[(4R)-4-methyl-4,5,6,7-tetrahydropyrazolo[4,3-c]pyridin-1-yl]azetidin-1-yl]methyl]morpholin-4-yl]quinoline-8-carbonitrile]",76
15,"Cc1nn(C2CN(C[C@H]3CN(c4ccc(C#N)c5ncccc45)C[C@@H](C)O3)C2)c2c1CN(C)CC2 [Example 14, 5-[(2S,6R)-2-[[3-(3,5-dimethyl-6,7-dihydro-4H-pyrazolo[4,3-c]pyridin-1-yl)azetidin-1-yl]methyl]-6-methyl-morpholin-4-yl]quinoline-8-carbonitrile]",276
16,"C[C@@H]1Cc2cn(C3CN(C[C@H]4CN(c5ccc(C#N)c6ncccc56)C[C@@H](C)O4)C3)nc2CN1 (single isomer, unassigned) [Example 30]",57
17,"C[C@@H]1Cc2c(cnn2C2CN(C[C@H]3CN(c4ccc(C#N)c5ncccc45)C[C@@H](C)O3)C2)CN1 [Example 16, 5-[(2R,6S)-2-methyl-6-[[3-[(6R)-6-methyl-4,5,6,7-tetrahydropyrazolo[4,3-c]pyridin-1-yl]azetidin-1-yl]methyl]morpholin-4-yl]quinoline-8-carbonitrile]",78
18,"Cc1c2c(nn1C1CN(C[C@H]3CN(c4ccc(C#N)c5ncccc45)C[C@@H](C)O3)C1)CCN(C)C2 [Example 15, 5-[(2S,6R)-2-[[3-(3,5-dimethyl-6,7-dihydro-4H-pyrazolo[4,3-c]pyridin-2-yl)azetidin-1-yl]methyl]-6-methyl-morpholin-4-yl]quinoline-8-carbonitrile]",128
19,"C[C@@H]1CN(c2ccc(C#N)c3ncccc23)C[C@H](CN2CC(n3cc4c(n3)[C@@H](C)NCC4)C2)O1 (single isomer, unassigned) [Example 33]",34
20,"C[C@@H]1CN(c2ccc(C#N)c3ncccc23)C[C@H](CN2CC(n3cc4c(n3)CNC4)C2)O1 [Example 11, 5-[(2S,6R)-2-[[3-(5,6-dihydro-4H-pyrrolo[3,4-c]pyrazol-2-yl)azetidin-1-yl]methyl]-6-methyl-morpholin-4-yl]quinoline-8-carbonitrile]",49
21,"C[C@@H]1CN(c2ccc(C#N)c3ncccc23)C[C@H](CN2CCC(n3ncc4c3CCNC4)CC2)O1 [Example 35, 5-[(2R,6S)-2-methyl-6-[[4-(4,5,6,7-tetrahydropyrazolo[4,3-c]pyridin-1-yl)-1-piperidyl]methyl]morpholin-4-yl]quinoline-8-carbonitrile]",82
22,"C[C@@H]1CN(c2ccc(C#N)c3ncccc23)C[C@H](CN2CC(n3cc4c(n3)[C@H](C)CNC4)C2)O1 (single isomer, unassigned) [Example 25]",82
23,"C[C@@H]1CN(c2ccc(C#N)c3ncccc23)C[C@H](CN2CCC(n3cc4c(n3)CCNC4)CC2)O1 [Example 36, 5-[(2R,6S)-2-methyl-6-[[4-(4,5,6,7-tetrahydropyrazolo[4,3-c]pyridin-2-yl)-1-piperidyl]methyl]morpholin-4-yl]quinoline-8-carbonitrile]",55
